# Experimental data taken from the SangsterLogP compilation.
# Assay: method code SF-GLC, from DOI: 10.1021/jf00107a040
row,SMILES,logP
1,NC(=O)Nc1ccc(F)cc1,1.04
2,NC(=O)Nc1cccc(Cl)c1,1.82
3,COC(=O)Nc1ccc(Cl)c(Cl)c1,3.09
4,COc1ccc(N)cc1Cl,1.85
5,NC(=O)Nc1ccccc1F,0.88
6,NC(=O)Nc1ccccc1Cl,1.27
7,NC(=O)Nc1ccc(Br)cc1,1.98
8,NC(=O)Nc1cccc(Br)c1,2.08
9,NC(=O)Nc1cccc(F)c1,1.29
10,CNC(=O)Nc1ccc(Cl)c(Cl)c1,2.94
11,NC(=O)Nc1cccc(C(F)(F)F)c1,2.31
12,NC(=O)Nc1ccc(Cl)c(Cl)c1,2.64

# Assay: method code SF-RC, from DOI: 10.1021/jf00107a040
row,SMILES,logP
1,CNC(=O)ON=CC(C)(C)S(C)(=O)=O,-0.57

# Assay: method code SF-AS, from DOI: 10.1021/jf00107a040
row,SMILES,logP
1,CC(=O)Nc1cccc(C(F)(F)F)c1,2.2
2,CNC(=O)Nc1ccccc1,1.17
3,CCCCOC(=O)Nc1ccccc1,3.3
4,Cc1cc(NC(N)=O)ccc1F,1.59
5,CN(C)C(=O)Nc1ccc(F)cc1,1.13
6,CC(C)OC(=O)Nc1ccccc1,2.6
7,CON(C)C(=O)Nc1ccc(Br)c(Cl)c1,3.09
8,CCCCCOC(=O)Nc1ccccc1,3.8
9,CN(C)C(=O)Nc1cccc(C(F)(F)F)c1,2.42
10,CCOC(=O)Nc1ccccc1,2.26
11,COc1cccc(NC(=O)N(C)C)c1,1.73
12,CNC(=O)Nc1ccc(C)c(Cl)c1,2.61
13,CCCOC(=O)Nc1ccccc1,2.8
14,CC(=O)Nc1cccc(Br)c1,2.04
15,Cc1ccc(NC(=O)N(C)C)cc1Cl,2.41
16,COc1ccc(NC(N)=O)cc1Cl,1.37
17,O=C(Nc1ccccc1)NC1CC1,1.65
18,CNC(=O)Nc1ccc(OC)c(Cl)c1,1.76
19,Cc1cc(NC(=O)N(C)C)cc(C)c1Br,2.92
20,CC(=O)Nc1cccc(F)c1,1.46

row,SMILES,logP
1,CN(C)C(=O)Nc1cccc(F)c1,1.37
2,NC(=O)Nc1ccc(Oc2ccccc2)cc1,2.8
3,CNC(=O)Nc1cccc(Cl)c1,2.18
4,CC(=O)Nc1cccc(C)c1,1.52
5,COc1ccc(NC(=O)N(C)C)cc1Cl,1.64
6,O=C(Nc1ccccc1)NC1CCCCC1,2.77
7,CN(C)C(=O)Nc1cccc(Cl)c1,2.01
8,CC(=O)Nc1cccc(Cl)c1,2.02
9,Cc1cc(C)cc(NC(=O)N(C)C)c1,1.9
10,Cc1cc(NC(N)=O)ccc1Br,2.49
11,Cc1ccc(NC(=O)N(C)C)cc1,1.33
12,COc1ccc(NC(=O)N(C)C)cc1,0.83
13,COc1ccc(NC(C)=O)cc1Cl,1.82
14,Cc1cc(N)ccc1Br,2.53
15,O=[N+]([O-])c1ccc(Br)cc1,2.6
16,Cc1cccc(NC(N)=O)c1,1.29
17,CC(=O)Nc1ccc(Br)cc1,2.14
18,O=C(Nc1ccccc1)NC1CCCC1,2.65
19,O=C(Nc1ccccc1)NC1CCCCCC1,2.95
